In the NIST ThermoML archive (doi:10.1016/j.jct.2012.05.002):
± gives the expanded uncertainty stated by the source.

Assay: Boiling temperature at pressure P
Conditions: 101.3 kPa; Liquid; Closed cell (Static) method

Boiling temperature at pressure P | Structure (SMILES)
64.69 ± 0.11 °C | COC(=O)OC [dimethyl carbonate]
90.26 ± 0.11 °C | CO [methanol]
